Measurements from PubChem BioAssay (NCI).
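Five concentrations, 48 hours, 96-well plates. GI50 marks 50% less growth. At the TGI there is no net growth.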

What was measured:
Test in all cases: inhibition of tumour cell growth, NCI panel, 48 h
786-0 renal = system: 786-0 renal
HCT-116 colon = system: HCT-116 colon
HL-60(TB) leukemia = system: HL-60(TB) leukemia
MALME-3M melanoma = system: MALME-3M melanoma
NCI-H226 lung = system: NCI-H226 lung
SF-295 CNS = system: SF-295 CNS
CAKI-1 renal = system: CAKI-1 renal
DU-145 prostate = system: DU-145 prostate
BT-549 breast = system: BT-549 breast
NCI/ADR-RES ovarian = system: NCI/ADR-RES ovarian

Structure (SMILES) | TGI (786-0 renal) | TGI (HCT-116 colon) [µM] | TGI (HL-60(TB) leukemia) | TGI (MALME-3M melanoma) [µM] | TGI (NCI-H226 lung) | TGI (SF-295 CNS) | TGI (CAKI-1 renal) [µM] | GI50 (786-0 renal) | GI50 (DU-145 prostate) | TGI (DU-145 prostate) | GI50 (HL-60(TB) leukemia) | GI50 (NCI-H226 lung) | GI50 (SF-295 CNS) | GI50 (BT-549 breast) [µM] | TGI (BT-549 breast) [µM] | GI50 (HCT-116 colon) [µM] | GI50 (MALME-3M melanoma) [µM] | GI50 (NCI/ADR-RES ovarian) [µM] | TGI (NCI/ADR-RES ovarian) [µM] | GI50 (CAKI-1 renal) [µM]
C/C(=N\NC(N)=S)c1ccc(/C(C)=N/NC(N)=S)cc1 | > 100 µM | > 100 | > 100 µM | > 100 | > 100 µM | > 100 µM |  |  |  |  |  |  |  |  |  |  |  |  |  | 
O=S(=O)(O)C(F)(F)C(F)(F)C(F)(F)C(F)(F)F | > 100 µM | > 100 | > 100 µM | > 100 |  | > 100 µM | > 100 |  |  |  |  |  |  |  |  |  |  |  |  | 
C/C(=N\NC(N)=S)c1ccc2c(c1)OCO2 | > 100 µM | > 100 | > 100 µM | > 100 | > 100 µM | > 100 µM | > 100 |  |  |  |  |  |  |  |  |  |  |  |  | 
Cc1cccc(C(C)(C)C)c1NC(=O)CC1C(=O)Nc2ccccc2S1=O (stereo not drawn) | > 100 µM | > 100 | 43.7 µM | > 100 | > 100 µM | > 100 µM | > 100 |  |  |  |  |  |  |  |  |  |  |  |  | 
O=[N+]([O-])c1ccc(Cc2nc3ccccc3s2)cc1 | > 100 µM | > 100 | > 100 µM | > 100 | > 100 µM | > 100 µM | > 100 |  |  |  |  |  |  |  |  |  |  |  |  | 
N=C(c1ccccc1)N1CCCCC1 | > 100 µM | > 100 | > 100 µM | > 100 | > 100 µM | > 100 µM | > 100 |  |  |  |  |  |  |  |  |  |  |  |  | 
CC(C)=CC(=O)Cc1nc2ccccc2[nH]c1=O | > 100 µM | > 100 | > 100 µM | > 100 | > 100 µM | > 100 µM | > 100 |  |  |  |  |  |  |  |  |  |  |  |  | 
OCCN(CO)CN(CN(CO)CCO)c1nc(N(CN(CO)CCO)CN(CO)CCO)nc(N(CN(CO)CCO)CN(CO)CCO)n1 | 4.6 ng/mL |  | 0.859 ng/mL |  | 2.72 ng/mL | 3.94 ng/mL |  | 1.49 ng/mL | 1.9 ng/mL | 78.3 ng/mL | 0.55 ng/mL | 1.25 ng/mL | 1.39 ng/mL |  |  |  |  |  |  | 
COc1ccc(C2(CN(C)C)COc3cc(OC)c(OC)cc3C2=O)cc1OC (stereo not drawn) | > 100 µM | 30.3 | 48.2 µM | > 100 | > 100 µM | > 100 µM | > 100 |  |  |  |  |  |  |  |  |  |  |  |  | 
OCCNc1nc(NCCO)nc(Nc2ccc(C3=NN(c4cc(Cl)cc(Cl)c4)C(c4ccc(Cl)cc4)C3)cc2)n1 (stereo not drawn) | 3.28 µM | 3.05 | 3.85 µM | 3.92 | 5.48 µM | 2.85 µM |  | 1.64 µM | 1.67 µM | 3.22 µM | 1.86 µM | 2.45 µM | 1.47 µM | 1.77 | 3.8 | 1.59 | 2.1 | 2.6 | 7.08 | 
CCN=C1NN=C(c2ccccc2)c2cc(Cl)ccc2N1 | 34.1 µM |  | 62.3 µM | 33.7 | 43.3 µM | 37.5 µM | 36.9 |  |  |  |  |  |  |  |  |  |  |  |  | 
C[C@]12CC[C@H]3[C@@H](CCC4=CC(=O)CC[C@@H]43)[C@@H]1CC[C@@H]2OC1(O)C(=O)c2ccccc2C1=O | 83.5 µM | 30.1 |  | > 100 | > 100 µM | > 100 µM | > 100 |  |  | 66.7 µM |  |  |  |  | > 100 |  |  |  | > 100 | 
COc1cc2c(cc1OC)-c1c(cnn1C1OC(COC(C)=O)C(OC(C)=O)C(OC(C)=O)C1OC(C)=O)CC2 (stereo not drawn) | > 100 µM | > 100 |  |  | > 100 µM | > 100 µM | > 100 |  |  |  |  |  |  |  |  |  |  |  |  | 
CC1(C)OC2C(CO)OC(n3ccc(=O)[nH]c3=O)C2O1 (stereo not drawn) | > 100 µM | > 100 | > 100 µM |  | > 100 µM | > 100 µM | > 100 |  |  | > 100 µM |  |  |  |  | > 100 |  |  |  | > 100 | 
CCOC(=O)c1cc2c(cc1Cl)SC(N(c1ccc(F)cc1)S(=O)(=O)c1ccc(OC)cc1)=NS2(=O)=O | 54.1 µM | 32 | 42.4 µM | 32.8 | > 100 µM | 74.8 µM | 48.7 | 24.4 µM | 16.1 µM | 33.9 µM | 18.5 µM | 29.8 µM | 25.7 µM |  |  | 17.1 | 14.9 | 21.2 | 42.1 | 20.2
N#CCCc1nc2ccc(Br)cc2c(=O)n1-c1ccc(O)c([N+](=O)[O-])c1 | 43.2 µM |  | 41.9 µM | 33.3 | 43.3 µM | 47.8 µM | 92.6 |  |  |  |  |  |  |  |  |  |  |  |  | 
O=C(Nc1ccc(C(F)(F)F)cc1[N+](=O)[O-])C(=O)C(C(=O)c1ccc2ccccc2c1)C1OC(=O)c2ccccc21 (stereo not drawn) | 19.5 µM | 15.3 | 39.6 µM | 25.8 | 3.29 µM | 24.8 µM | 41.7 |  |  |  |  |  |  |  |  |  |  |  |  | 
CCc1ccccc1NC(=O)CCc1nc(=S)[nH][nH]1 | > 100 µM | > 100 | > 100 µM | > 100 | > 100 µM | > 100 µM | > 100 |  |  |  |  |  |  |  |  |  |  |  |  | 
CSC(=S)N(C)c1nc(=[N+](C)C)ss1 | > 100 µM | > 100 | > 100 µM | > 100 | > 100 µM | > 100 µM | > 100 |  |  |  |  |  |  |  |  |  |  |  |  | 
Cc1ccccc1C(C#N)/C(=N/NC(=O)c1cc2ccccc2cc1O)C(=O)Nc1cccc(Cl)c1 (stereo not drawn) | > 100 µM | > 100 | 26.8 µM | > 100 | 78.4 µM | > 100 µM | > 100 |  |  |  |  |  |  |  |  |  |  |  |  | 
CCCOc1ccc(/C=C\c2cc(OC)c(OC)c(OC)c2)cc1 | > 100 µM | > 100 | > 100 µM | > 100 | > 100 µM | > 100 µM | > 100 |  |  |  |  |  |  |  |  |  |  |  |  | 
CC(=O)/C=C1/c2ccccc2N(C(C)=O)C1O (stereo not drawn) | > 100 µM | > 100 | > 100 µM |  |  | > 100 µM | > 100 |  |  |  |  |  |  |  |  |  |  |  |  | 
COc1ccc(C2=NNC(c3ccc(-c4ccc(OC)cc4[N+](=O)[O-])o3)C2)cc1 (stereo not drawn) | > 100 µM | > 100 | > 100 µM | 69.5 |  | > 100 µM |  | 48.8 µM | 36.3 µM | > 100 µM | 71.7 µM |  | 29.5 µM | 26.6 | 93.5 | 22.8 | 0.412 | 17.9 | 59.9 | 
CCCOc1ccc(/C=C/c2cc(OC)c(OC)c(OC)c2)cc1 | > 56.3 µM | > 33.3 | 1.16 µM | 84.8 | 2.54 µM | 1.06 µM | 37.6 |  |  |  |  |  |  |  |  |  |  |  |  | 
